Measured values as given in patent publication US5635516A, “(Thia) cycloalkyl[B]indole compounds as anti-inflammatory agents” (Adir et Compagnie, priority 1994, dated 1997).

Columns and labels:
[1] = test system: phorbol 12-myristate-13-acetate induced ear swelling; assay: Acute cutaneous inflammation in mice (phorbol 12-myristate-13-acetate test); assay type: in vivo; conditions: Mus musculus; topical on ears of mice 30 minutes before phorbol 12-myristate-13-acetate; swelling of the ear at 6 hours
Description: In the following test, the measurements were carried out on groups of five mice. The tests on the groups of control mice are carried out at the same time as those on the groups of mice which have received the test compounds.
5 μg of phorbol 12-myristate-13-acetate in 20 μl of an ethanol/water mixture (8:2) are applied to the front and rear surfaces of the right ears of the mice, 30 minutes after the application in a similar manner of the test compounds or of the vehicle (2×20 μl at 5-minute intervals in absolute alcohol). The swelling of the ear is measured 6 hours later with the aid of a Dyer micrometer. That measurement is used as the inflammation index.

cyclo-oxygenase = assay: PGE2 production by rabbit granulocytes stimulated in vitro by A 23187 (enzyme immunoassay); assay type: cell-based; conditions: 10-^7 M
Text: (§1) The object of this study is to determine the effects of compounds of the invention on the lipoxygenase and cyclo-oxygenase activities of rabbit granulocytes stimulated in vitro by A 23187, by measuring the levels of PGE2 and LTB4 thus liberated by means of an enzyme immunoassay (EIA). The granulocytes are isolated from rabbit blood collected from the main artery of the ear according to the method described by Trush et al. (1978). They are suspended, at a density of 10^6 cells/cm^3, in a phosphate buffer (mM): NaCl: 137; KCl: 2.68; Na2 HPO4 : 8.1; KH2 PO4 : 1.47; CaCl2 : 0.9; MgCl2 : 0.5 The freshly obtained granulocytes are pre-incubated for a period of 15 minutes at 37° C. in the presence of the test products. The results are expressed as percentages of the positive control. The values are presented as the mean±s.e.m. of three measurements carried out on the same day, for the "screening" study, and of three measurements carried out on three different days for the IC50 study. The IC50 values and the Hill number values (Hn) are determined by modelling using the Hill equation.

5-lipoxygenase = assay: LTB4 production by rabbit granulocytes stimulated in vitro by A 23187 (enzyme immunoassay); assay type: cell-based; conditions: 10-^7 M
Text: as §1

Compound: CCOC(=O)Cn1c2c(c3cc(OCc4ccc5ccccc5n4)ccc31)CCCCCC2 [Example 2]
- IC50 [1]: 20 µM
- effect on the production of PGE2 (cyclo-oxygenase): without reducing
- inhibition of the production of LTB4 (5-lipoxygenase): completely

Compound: O=C(O)Cn1c2c(c3cc(OCc4ccc5ccccc5n4)ccc31)CCCCCC2 [Example 4, 2-{3-[(QUINOL-2-YL)METHYLOXY]-5,6,7,8,9,10,11-HEPTAHYDRO-CYCLOOCT[b]INDOLE}ACETIC ACID]
- IC50 [1]: 15 µM
